Data set [1] concerns L. rhamnosus ATCC 53103. As to the kind of experiment: Pure culture growth screening of L. rhamnosus ATCC 53103 on oligo/polysaccharides. The class given is cell-based, Lactobacillus rhamnosus. The source says: Commercially available prebiotics and other oligo and polysaccharides were first screened using a fast throughput automated growth culture system under anaerobic conditions to establish ability to support LR growth and define growth rates (1% w/v). The following test substrates had been initially identified for further consideration: Short chain fructooligosaccharides (scFOS), oligofructose P95 (FOS), Orafti ST, Orafti HP, Synergy 1, Bioecolians (glucooligosaccharides), gentiooligosaccharides, fucosyllactose, ß glucan (low/medium/high molecular weight; derived from oats), yeast ß glucan, arabinoxylan, xylooligosaccharides, caseinoglycomacropeptide (cgmp), raffinose, stachyose and Bio-Mos.
The aim of the experiment was to investigate the growth behavior of L. rhamnosus ATCC 53103 under a wide variety of commercially available, oligo and polysaccharides and to evaluate impact of test substrate physical characteristics on screening process and investigate growth on GOS synthesized by L. rhamnosus GR1 β-galactosidases. Results would be evaluated on the basis of: microbial growth (OD-Fermentation time); growth rate [μmax(h^−1)]; and change in optical density (max-min). Growth preferences of Lactobacillus rhamnosus ATCC 53103 would be used to determine target structures and carbohydrates for use as prebiotics for L. rhamnosus species or strains. […]

The subject of data set [2] is gas producing members of the faecal microbiota. As to the kind of experiment: Rate of gas and cumulative gas determination in non-pH controlled faecal culture. The class given is cell-based, healthy adults. The procedure:
The aims of this experiment were to determine: (i) the total gas production over a 24 h fermentation period of each of carbohydrate of interest; (ii) the kinetics of gas production (rate) to evaluate the potential of increased abdominal discomfort in vivo upon the ingestion of the carbohydrates of interest; and (iii) the impact of using the selected carbohydrates in combination with LR on total and rate of gas production.
Determination of rate of gas was of particular importance as gas generation at specific time points rather than continuously at low or moderate levels may correlate with abdominal discomfort in vivo and important in relevance to consumer acceptability.
The experiments investigated the potential for gastrointestinal discomfort in vitro, through the determination of rate of gas and cumulative gas production in faecal culture. The cultures were non-pH controlled and six experimental runs were conducted using faeces from six different healthy adults. Headspace gas readings collected every 3 h over a 24 h period for rate of gas determination
The experimental design was as follows: • Faeces • Faeces+L. rhamnosus ATCC 53103 (negative control) • Faeces+Inulin HP (positive prebiotic control) • Faeces+Inulin HP+L. rhamnosus ATCC 53103 (positive synbiotic control) • Faeces+test carbohydrate • Faeces+test carbohydrate+L. rhamnosus ATCC 53103 Lactobacillus rhamnosus ATCC 53103 Test Dose Determination
Intervention dose used in the non-pH controlled gas determination experiments and the pH controlled faecal batch culture experiments was calculated based on the relative amounts of faecal inoculum and LR viable counts in the gut model (low dose, 0.75×10^4 cfu) and the relative concentrations of total bacteria to LR viable counts in the gut model (high dose, 5.36×10^4 cfu). Both doses were tested in the non-pH controlled gas determination faecal cultures to determine the possible role of LR in rate and cumulative gas production.

For data set [3], the system named is L. rhamnosus ATCC 53103. As to the kind of experiment: qPCR determination of LR concentrations in anaerobic pH controlled faecal batch culture. The following applies: for LR concentration (growth) in faecal culture: pH controlled anaerobic faecal batch culture, 1% w/v substrate, LR 5.36×10^4 cfu. The class given is cell-based, Lactobacillus rhamnosus. The procedure: Synbiotic potential of the selected oligosaccharides/blends was then to be determined in 24 h, anaerobic, pH and temperature controlled micro-scale faecal (10 ml working volume) faecal batch culture models.
The models had been optimised to work at 1% w/v test oligosaccharide concentration and carried out at pH6.8, which is relevant to the distal colon. Conditions in the distal colon (carbohydrate availability, very slow transit time) are more relevant to batch culture design. Fermentations were to be set up in parallel in identical conditions with the only variable being the test oligosaccharides. The following combinations were to be tested in each experimental run: • Faeces (prebiotic negative control) • Faeces+LR (synbiotic negative control) • Faeces+LR+GeOS (gentiooligosaccharides) • Faeces+LR+Cellb (cellobiose) • Faeces+LR+XOS (xylooligosaccharides) • Faeces+GeOS • Faeces+Cellb • Faeces+XOS • Feces+inulin (positive prebiotic control for test prebiotics) • Faeces+FOS (positive prebiotic control for test prebiotics) • Faeces+LR+inulin (positive prebiotic control for test synbiotics) • Faeces+LR+FOS (positive prebiotic control for test synbiotics)
All vessels, run in parallel, were to be inoculated with the same faecal sample and the experiment repeated using a faecal sample from each of six different healthy donors. […] levels in faecal culture using qPCR; and determination of the impact of each intervention on commensal faecal microbiome composition using FISH to ensure novel prebiotic will not be fermented by undesirable bacteria and ensure selectivity in a complex, competitive culture environment. Analysis targeted numerically dominant and functionally significant faecal bacterial groups including Bacteroides, Clostridium, Eubacterium, Propionibacterium, Bifidobacterium, Lactobacillus, Faecalibacterium, Atopobium, and Desulfovibrio.
(§1) An in vitro assessment of synbiotic efficacy in faecal culture using a pH controlled, anaerobic, temperature controlled cultures. The cultures were inoculated with faecal slurry of each of 6 healthy adults. The combinations included: • Faeces (prebiotic negative control) • Faeces+LR (synbiotic negative control) • Faeces+LR+GeOS (gentiooligosaccharides) • Faeces+LR+Cellb (cellobiose) • Faeces+LR+XOS (xylooligosaccharides) • Faeces+GeOS • Faeces+Cellb • Faeces+XOS • Feces+inulin (positive prebiotic control for test prebiotics) • Faeces+FOS (positive prebiotic control for test prebiotics) • Faeces+LR+inulin (positive prebiotic control for test synbiotics) • Faeces+LR+FOS (positive prebiotic control for test synbiotics)
No commensal LR was detected in the prebiotic only cultures (data not shown).
The primers for the real-time PCR determination was as follows: […]

Data set [4] has as its system Lactobacillus/Enterococcus (Lab158). Kind of data set: FISH of commensal bacteria in pH controlled faecal culture, probe Lab158. The class given is cell-based, healthy adults. The procedure: (§2) All vessels, run in parallel, were to be inoculated with the same faecal sample and the experiment repeated using a faecal sample from each of six different healthy donors. Samples were to be obtained at inoculation (0 h) and then at 8 and 24 h of fermentation for: determination of LR levels in faecal culture using qPCR; and determination of the impact of each intervention on commensal faecal microbiome composition using FISH to ensure novel prebiotic will not be fermented by undesirable bacteria and ensure selectivity in a complex, competitive culture environment. Analysis targeted numerically dominant and functionally significant faecal bacterial groups including Bacteroides, Clostridium, Eubacterium, Propionibacterium, Bifidobacterium, Lactobacillus, Faecalibacterium, Atopobium, and Desulfovibrio.
(§3) An in vitro assessment of synbiotic efficacy in faecal culture using a pH controlled, anaerobic, temperature controlled cultures. The cultures were inoculated with faecal slurry of each of 6 healthy adults. […]
(§4) Fluorescent in situ hybridisation (FISH) experiments were then conducted to investigate the impact on commensal gut microbiome bacterial populations in faecal culture and the fluorescently labelled micrographs are shown in FIG. 20. FISH is a fully quantitative methodology for determining bacterial concentrations at the genus and species level. […]

In data set [5] the test system is Bacteroides/Prevotella (Bac303). As to the kind of experiment: FISH of commensal bacteria in pH controlled faecal culture, probe Bac303. The class given is cell-based, healthy adults. The following applies: pH controlled anaerobic faecal culture. On the procedure:
as §2, §3, §4

The test system of a further data set is Ato291 (Atopobium). As to the kind of experiment: FISH of commensal bacteria in pH controlled faecal culture, probe Ato291. As to conditions: pH controlled anaerobic faecal culture, FIG. 25. The class given is cell-based, healthy adults. On the procedure: as §2, §3, §4
The test system of data set [6] is L. rhamnosus ATCC 53103. Kind of data set: Organic acid (SCFA and lactate) synthesis in pH controlled faecal batch culture. The class given is cell-based, Lactobacillus rhamnosus. The following applies: pH controlled faecal batch cultures with LR.
From the text: Lastly, determination of faecal microbiome activity through organic acid (SOFA and lactate) measurement was to be conducted at each sampling point. Information will indicate potential fermentation rates of each novel prebiotic.
as §1

In data set [7] the test system is Lactobacillus plantarum 2830 (ECGC 13110402). As to the kind of experiment: Pure culture growth of Lactobacillus plantarum 2830 (LP-LDL) on carbohydrate sources. The class given is cell-based. As to conditions: modified MRS, glucose (1% wt/vol) substituted, anaerobic, 37° C., OD 620 nm. The procedure:
Similar growth experiments to Example 1 above were conducted on Lactobacillus plantarum 2830 (ECGC 13110402) on a range of substrates including, MRS+LP, Glucose, Lactose, LP GOS, alphaGOS (a proprietary GOS product), Raffinose, Galactose, Cellobiose, FOS (short chain), Sucrose, GOS I (a proprietary GOS product), GOS II (a proprietary GOS product), GOS III (a proprietary GOS product) and Gentiooligosaccharides (GeOS). […] Experiments were carried out under anaerobic conditions on a 96-well microtiter plate system (FLUOstar Omega, BMG LABTECH) in a final volume of 200 μL using an inoculum size 10% (w/v), previously diluted to obtain an initial OD620 nm=0.2. Incubation was conducted under anaerobic conditions at 37° C. with interval shaking at 500 rpm every 5 min. Optical density measurements at 620 nm were employed to assess microbial growth.

“Also recorded” adds a separate entry of the source. Like-named read-outs stand apart in the source and are kept apart here.

Results on 3 compounds are retold here after US11622980B2, “Compositions comprising prebiotics and probiotics” (OPTIBIOTIX LIMITED, priority 2017, dated 2023).

For `O=C[C@H](O)[C@@H](O)[C@H](O[C@@H]1O[C@H](CO)[C@@H](O)[C@H](O)[C@H]1O)[C@H](O)CO` [cellobiose], the lag phase entry in the data set with L. rhamnosus ATCC 53103 [1] (pure culture growth curves, 1% (w/v) substrate, FIG. 9) is reported as “notably longer lag phase”. Moreover, the “growth of LR in pure culture” value in the data set on L. rhamnosus ATCC 53103 [1] (pure culture, modified MRS, 1% w/v test carbohydrate) was “can grow in pure culture”. In addition, the “rate of gas production” value in data set [2] (24 h non-pH controlled faecal culture, readings every 3 h, relative to inulin) was “comparable to that of inulin”. Besides, the cumulative gas production entry in data set [2] (24 h non-pH controlled faecal culture, relative to inulin) is recorded as “comparable to that of inulin”. Moreover, the “donors sensitive to the test oligosaccharide (total gas production)” value (shortened to “donors sensitive”) in data set [2] (24 h non-pH controlled faecal fermentation, six faecal donors) was “Donors 4 and 7; also recorded: donor 5”. Besides, the “volunteers showing an increase of L. rhamnosus ATCC 53103 concentrations” value with L. rhamnosus ATCC 53103 [3] (0, 10 and 24 h pH controlled faecal batch culture, six volunteers, qPCR) is recorded as “Five out of the six”. For the same compound, the “LR concentration (growth) in faecal culture” value is recorded as “growth of LR” in the data set with L. rhamnosus ATCC 53103 [3] (qPCR) and “best growth substrate for LR; also recorded: increases in LR concentration” with L. rhamnosus ATCC 53103 [3] (qPCR, listed as Cellobiose). Further, in the data set on L. rhamnosus ATCC 53103 [3] (pH controlled faecal batch cultures, six donors), the “dependence of the effect on LR on faecal donor” value was “not dependent on faecal donor enterotype”. For the same compound, the “responders within the 6 faecal donors (Lab158)” value in data set [4] (compared to the positive controls (inulin and FOS)) is reported as “More responders”. Further, the “Lab158 (Lactobacillus/Enterococcus) concentration” value in data set [4] (pH controlled anaerobic faecal culture, six healthy adults, FISH) is “significant increase”. Further, in data set [5], the “Bacteroides/Prevotella (Bac303) concentration” value is “some impact”. The Ato291 concentrations result in the data set with Ato291 (Atopobium) is given as “some increases”. Further, in the data set with L. rhamnosus ATCC 53103 [6], the “LR activity (organic acid synthesis)” value is “mediated increases in LR concentration and activity”. The “growth rates of LP-LDL” value in data set [7] is reported as “highest growth rates”. Besides, the “growth yields of LP-LDL” value in data set [7] was “highest growth yields”.

As to xylooligosaccharides [XOS], in data set [2], the “donors sensitive” value is “Donors 4 and 7”; the “rate of gas production” value was “comparable to that of inulin”; the “tolerance by donors (total gas and rate of gas)” value is listed as “tolerated the best by the majority of donors”.

Consider gentiooligosaccharides [GeOS], for which, in data set [2], the “donors sensitive” value is “Donors 4 and 7”; the “rate of gas production” value is “comparable to that of inulin”; the “tolerance by donors (total gas and rate of gas)” value was “tolerated the best by the majority of donors”.
